“And” between values parts separate entries of the source, which are not always exact repeats. Identical values can stand only once. Like-named read-outs stand apart in the source and are kept apart here.
How the values were obtained:
[1] = system: promastigotes of L. amazonensis; conditions: L. amazonensis promastigotes; previously published; read-out: IC50 Promastigotes; cited from earlier work
[2] = system: axenic amastigotes of L. amazonensis; conditions: L. amazonensis amastigotes, cited from earlier work
[3] = system: L. amazonensis; conditions: Swiss mice, oral, 50 and 200 mg/kg, 7 weeks; versus meglumine antimoniate i.p. 100 mg/kg; cited from earlier work
[4] = system: promastigotes of L. amazonensis; test: Growth inhibition of promastigote forms of L. amazonensis (MTT); assay type: cell-based, Leishmania amazonensis; conditions: 72 h, 26 °C
Method: (§1) The in vitro tests utilized Leishmania amazonensis parasites (IFLA/BR/67/PH8). These leishmania cell lines were obtained from Oswaldo Cruz Foundation (FIOCRUZ)/Brazil. The promastigote forms were cultivated in Schneider’s insect medium at 26 °C in a biological oxygen demand (BOD) incubator. Schneider’s insect medium was supplemented with 20% fetal bovine serum (FBS) and 1% penicillin (100 U/mL) and streptomycin (µg/mL) (complete Schneider). Next, we differentiated them from promastigote forms by changing the conditions to Schneider’s insect medium supplemented with 5% FBS, pH 4.6, and a temperature of 32 °C to obtain axenic amastigote forms of L. amazonensis. Meanwhile, RAW 264.7 macrophages were cultured in […] cell culture flasks using DMEM medium supplemented with 10% FBS, 1% penicillin 100 U/mL, and 100 μg/mL streptomycin (complete DMEM) and incubated at 37 °C and 5% CO2.
Parasite growth inhibition was evaluated using the methodology described by Rodrigues et al. (2015). Cultures of logarithmically growing promastigote and axenic amastigote forms (1 × 10^6 parasites/mL) were incubated in 96-well plates containing 100 µL of supplemented Schneider’s medium in triplicate. Serial concentrations of 2-amino-thiophene and 2-amino-selenophene derivatives (10.00–0.156 μM) and the reference drugs meglumine antimoniate (500–40,000 μg/mL), amphoterecinB (0.1–2 μM), and pentamidine (3.12–100 µM) were added. BNP was used as a negative control. The cultures were incubated in a biological oxygen demand oven (model Eletrolab EL202, São Paulo, Brazil) at 26 °C for promastigotes and 32 °C for axenic amastigotes for 72 h. Then, 10 μL of MTT (5 mg/mL) was added to each well to colorimetrically evaluate growth inhibition. The plate was subsequently incubated for a further 4 h, followed by adding 50 μL of 10% sodium dodecyl sulfate solution for […] before the optical density of the culture was read on a microplate spectrophotometer reader. The reading was taken at the test and reference wavelengths of 540 and 620 nm using a microplate spectrophotometer. The negative control consisted of 0.2% […] with BNP, considered to be 100% viable.

[5] = system: RAW 264.7 macrophages; test: Cytotoxicity in macrophages (MTT); assay type: cell-based; conditions: 48 h
Method: as §1
First, 100 μL DMEM medium complete with 1 × 10^6 macrophages (RAW 264.7) was added to each well of a 96-well plate. RAW 264.7 macrophages were obtain from ATCC: code TIB-71^TM. The plate was placed in an incubator (37 °C, 5% CO2) (Sanyo, model COM-15A, Sanyo Electric Co., Osaka, Japan) for 4 h to promote cell adhesion. After this period, two washes were conducted with previously heated DMEM medium (37 °C) to remove non-adhered cells. 2-amino-thiophene and 2-amino-selenophene derivatives were added to wells at serial concentrations of 400 to 25 µM and then incubated for 48 h. Next, 10 μL of MTT at a […] of 5 mg/mL were added to each well and incubated for 4 h. The plate was then shaken for 30 min and read at the test and reference wavelengths of 550 and 620 nm, respectively, in a plate reader. DMEM medium supplemented with 0.5% DMSO was used as a negative control and considered as 100% macrophage viability. The selectivity index for each treatment was calculated as the ratio between the concentration of cytotoxicity of RAW 264.7 macrophages (CC50) and the 50% inhibitory concentration (IC50) or effective concentration (EC50), as measured for the different evolutionary forms of L. amazonensis.

Row | Compound | IC50 [1] | IC50 ([2]; previously published, read-out: IC50 Amastigotes) [µM] | EC50 ([2]; read-out: EC50 against amastigotes) [µM] | paw lesion size and parasite load in the reservoirs [3] | IC50 [4] | IC50 ([4]; listed as Anfotericina B) [nM] | CC50 [5] | CC50 ([5]; listed as Anfotericina B) [nM]
1 | N#Cc1c(/N=C/c2c[nH]c3ccc(Br)cc23)sc2c1CCCC2 [SB-83] | 3.3 µM and 3.37 µM | 18.5 | 18.5 | more effective than meglumine antimoniate |  |  |  | 
2 | C[C@@H]1[C@H](O)[C@@H](C)/C=C/C=C/C=C/C=C/C=C/C=C/C=C/[C@H](O[C@@H]2O[C@H](C)[C@@H](O)[C@H](N)[C@@H]2O)C[C@@H]2O[C@](O)(C[C@@H](O)C[C@@H](O)[C@H](O)CC[C@@H](O)C[C@@H](O)CC(=O)O[C@H]1C)C[C@H](O)[C@H]2C(=O)O [Amphotericin B, reference compound] |  |  |  |  | 170 nM and 300 nM | 360 | 180 nM and 300 nM | 380

Source: paper PMC11768359, “2-Aminothiophene Derivatives—New Drug Candidates Against Leishmaniasis: Drug Design, Synthesis, Pharmacomodulation, and Antileishmanial Activity” (Pharmaceuticals, 2025)
